The results in this text go back to article PMC12667553, “TWF2 Drives Tumor Progression and Sunitinib Resistance in Renal Cell Carcinoma through Hippo Signaling Suppression” (Advanced Science, 2025).

Assay [1] deals with T1, TWF2 (Twinfilin actin-binding protein; Flag-TWF2) (Homo sapiens, UniProt Q6IBS0).
T1 construct: Flag-tagged TWF2 overexpressed in 293F cells, purified with anti-Flag magnetic beads
T1 sequence (Q6IBS0 2-349): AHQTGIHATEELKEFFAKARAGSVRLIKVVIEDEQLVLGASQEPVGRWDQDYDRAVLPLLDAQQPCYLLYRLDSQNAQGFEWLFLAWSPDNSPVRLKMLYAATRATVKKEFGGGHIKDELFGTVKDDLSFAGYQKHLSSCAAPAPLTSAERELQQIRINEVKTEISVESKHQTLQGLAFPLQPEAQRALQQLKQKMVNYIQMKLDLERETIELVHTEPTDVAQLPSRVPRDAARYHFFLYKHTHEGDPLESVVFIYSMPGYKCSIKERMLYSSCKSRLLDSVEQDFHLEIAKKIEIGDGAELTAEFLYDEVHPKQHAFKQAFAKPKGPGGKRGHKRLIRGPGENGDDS
The assay is described as follows: isothermal titration calorimetry. To be noted: 25 °C; 20 mM HEPES pH 7.5, 300 mM NaCl, 2 mM MgCl2; 1 mM Sal E titrated into 100 µM TWF2; single-site model. The text has this:
isothermal titration calorimetry on TWF2 (Twinfilin actin-binding protein; Flag-TWF2) | direct binding affinity between Sal E and purified TWF2, with a dissociation constant (K d)

The target of assay [2] is T2, TWF2 (Twinfilin actin-binding protein; Flag-TWF2) (Homo sapiens, UniProt Q6IBS0, M99A).
T2 construct: Flag-tagged TWF2 overexpressed in 293F cells, purified with anti-Flag magnetic beads
T2 sequence (Q6IBS0 2-349 M99A): T1 sequence (Q6IBS0 2-349) with M98A
The assay is described as follows: isothermal titration calorimetry. The following applies: 25 °C; 20 mM HEPES pH 7.5, 300 mM NaCl, 2 mM MgCl2; 1 mM Sal E titrated into 100 µM TWF2; single-site model.

Substitutions are numbered along the chain they refer to.

In assay [1], `O=C(/C=C/c1ccc(O)c(O)c1/C(=C\c1ccc(O)c(O)c1)C(=O)O[C@H](Cc1ccc(O)c(O)c1)C(=O)O)O[C@H](Cc1ccc(O)c(O)c1)C(=O)O` [Salvianolic acid E] came in with a Kd of 16.7 µM. In addition, in assay [2], the “loss of Sal E binding” value was “showing loss of Sal E binding upon M99 mutation in TWF2”.
